Assay results: patent publication US8124635B2, “Antimicrobial composition useful for preserving wood” (Rohm and Haas Company, priority 2006, dated 2012)
Like-named read-outs stand apart in the source and are kept apart here.

Legend:
Type in all cases: cell-based
[1] = system: Gloeophyllum trabeum (G. trabeum—ATCC # 11593); test: Application test: treated paper disc on Malt agar plate, fungal growth observed visually after 4 weeks; conditions: G. trabeum ATCC # 11539, contact time 4 weeks
Method: (§1) An application test was performed to evaluate synergy of DCOIT/thifluzamide alone and in combination against Gloeophyllum trabeum (G. trabeum—ATCC # 11593) and Trametes vesicolor (T. vesicolor—ATCC # 4262). A paper disc was dipped in the treatment solution, air dried and placed on Malt agar plate streaked with the test organisms. The surface of the disc was also swabbed with the test organisms. The agar plates were incubated at 25° C. for 4 weeks. Fungal growth was then observed visually.

[2] = system: Trametes vesicolor (T. vesicolor—ATCC # 4262); test: as above; conditions: T. vesicolor ATCC # 42462, contact time 4 weeks
Method: as §1

[3] = system: Pseudomonas aeruginosa (Ps. aeruginosa—ATCC # 9027); test: Microtiter plate MIC / synergy test (Kull synergy index), M9GY medium, 30° C.; conditions: for MIC: Pseudomonas aeruginosa, read-out: MIC of the component acting alone (end point); for Cb = Component B (OIT), end-point concentration (MIC), alone or in mixture: Component A propiconazole; for Ca = Component A (propiconazole), end-point concentration (MIC), alone or in mixture: Component B OIT
Text: (§2) One measure of synergism is the industrially accepted method described by Kull, F. C.; Eisman, P. C.; Sylwestrowicz, H. D. and Mayer, R. L., in Applied Microbiology 9:538-541 (1961), using the ratio determined by the formula: Ca/CA+Cb/CB=Synergy Index (“SI”) wherein: • CA=concentration of compound A (first component) in ppm, acting alone, which produced an end point (MIC of Compound A). • Ca=concentration of compound A in ppm, in the mixture, which produced an end point. • CB=concentration of compound B (second component) in ppm, acting alone, which produced an end point (MIC of Compound B). • Cb=concentration of compound B in ppm, in the mixture, which produced an end point.
(§3) When the sum of Ca/CA and Cb/CB is greater than one, antagonism is indicated. […] The lower the SI, the greater the synergy shown by that particular mixture. The minimum inhibitory concentration (MIC) of an antimicrobial compound is the lowest concentration tested under a specific set of conditions that prevents the growth of added microorganisms.
(§4) Synergy tests were conducted using standard microtiter plate assays with media designed for optimal growth of the test microorganism. Minimal salt medium supplemented with 0.2% glucose and 0.1% yeast extract (M9GY medium) was used for bacteria testing; Potato Dextrose Broth (PDB medium) was used for yeast and mold testing. In this method, a wide range of combinations of microbicides was tested by conducting high resolution MIC assays in the presence of various concentrations of biocides. High resolution MICs were determined by adding varying amounts of microbicide to one column of a microtitre plate and doing subsequent ten-fold dilutions using an automated liquid handling system to obtain a series of end points ranging of active ingredient. The synergy of the combinations of the present invention was determined against two bacteria, Pseudomonas aeruginosa (Ps. aeruginosa—ATCC # 9027) and Staphylococcus aureus (S. aureus—ATCC # 6538), a yeast, Candida albicans (C. albicans—ATCC # 10231), and a mold, Aspergillus niger (A. niger—ATCC 16404). The bacteria were used at a concentration of about 1-6×10^6 bacteria per mL and the yeast and mold at 1−5×10^5 fungi per mL. These microorganisms are representative of natural contaminants in many consumer and industrial applications. […] (yeast and mold) or 30° C. (bacteria).

[4] = system: Staphylococcus aureus (S. aureus—ATCC # 6538); test: as above; design: Ca = Component A (tebuconazole), end-point concentration (MIC), alone or in mixture / Ca = Component A (propiconazole), end-point concentration (MIC), alone or in mixture: unit: ppm; conditions: for MIC: Staphylococcus aureus, read-out: MIC of the component acting alone (end point); for Cb = Component B (OIT), end-point concentration (MIC), alone or in mixture: Component A propiconazole
Text: as §2, §3, §4

[5] = system: Candida albicans (C. albicans—ATCC # 10231); test: Microtiter plate MIC / synergy test (Kull synergy index), PDB medium, 25° C.; design: Ca = Component A (tebuconazole), end-point concentration (MIC), alone or in mixture / Ca = Component A (propiconazole), end-point concentration (MIC), alone or in mixture: unit: ppm; conditions: for Cb = Component B (OIT), end-point concentration (MIC), alone or in mixture: Component A propiconazole; for MIC of the component acting alone (end point) / MIC: C. albicans; for MIC: Candida albicans, read-out: MIC of the component acting alone (end point)
Text: as §2, §3, §4

[6] = system: Aspergillus niger (A. niger—ATCC 16404); test: as above; conditions: for MIC: Aspergillus niger, read-out: MIC of the component acting alone (end point)
Text: as §2, §3, §4

[7] = ATCC9027, 24 h, Ps. aeruginosa, contact time 24 hour
[8] = ATCC9027, 48 h, Ps. aeruginosa, contact time 48 hour
[9] = ATCC6538, 24 h, S. aureus, contact time 24 hour
[10] = ATCC6538, 48 h, S. aureus, contact time 48 hour
[11] = Ps. Aeruginosa ATCC # 9027, contact time 24 hour
[12] = Ps. Aeruginosa ATCC # 9027, contact time 48 hour
[13] = Ps. aeruginosa, contact time 24 hour
[14] = S. aureus, contact time 24 hour
[15] = S. aureus, contact time 48 hour
[16] = ATCC10231, 24 h, contact time 24 hour
[17] = ATCC16404, 72 h, A. niger, contact time 3 days
[18] = ATCC16404, 168 h, A. niger, contact time 7 days
[19] = S. aureus, contact time 24 hour, Component B CMIT/MIT
[20] = S. aureus, contact time 24 hour, Component B copper 8-hydroxyquinoline
[21] = S. aureus, contact time 48 hour, Component B copper 8-hydroxyquinoline
[22] = C. albicans ATCC # 10231, contact time 24 hour, Component B CMIT/MIT
[23] = C. albicans ATCC # 10231, contact time 24 hour, Component B copper 8-hydroxyquinoline
[24] = C. albicans ATCC # 10231, contact time 48 hour, Component B copper 8-hydroxyquinoline
[25] = A. niger ATCC # 16404, contact time 3 days, Component B copper 8-hydroxyquinoline
[26] = A. niger ATCC # 16404, contact time 7 days, Component B copper 8-hydroxyquinoline

With Cc1nc(C(F)(F)F)c(C(=O)Nc2c(Br)cc(OC(F)(F)F)cc2Br)s1 [thifluzamide] the “Cb = Component B (thifluzamide), end-point concentration, alone or in mixture” value ([1]; Component A DCOIT) was over 960 and the “Cb = Component B (thifluzamide), end-point concentration, alone or in mixture” value ([2]; Component A DCOIT) was 320.

CCCCCCCCn1sc(Cl)c(Cl)c1=O [DCOIT, 4,5-dichloro-2-n-octyl-4-isothiazolin-3-one] showed an MIC [3, 7] of 3.2 µg/mL, an MIC [3, 8] of 5.3 µg/mL and an MIC [4, 9] of 0.1 µg/mL. For the same molecule, the MIC [4, 10] was 0.4 µg/mL, the “Ca = Component A (DCOIT), end-point concentration, alone or in mixture” value ([1]; Component B thifluzamide) was 320 and the “Ca = Component A (DCOIT), end-point concentration, alone or in mixture” value ([2]; Component B thifluzamide) was 320.

For CCCCCCCCn1sccc1=O [OIT, 2-n-octyl-4-isothiazolin-3-one], the “Cb = Component B (OIT), end-point concentration (MIC), alone or in mixture” value (“Cb = Component B (OIT)” for short) [3, 11] was 390, the “Cb = Component B (OIT)” value [3, 12] was 525 and the “MIC of the component acting alone (end point)” value (“MIC … (end point)” below) [3, 13] was 390 ppm. For the same molecule, the MIC [3, 7] was 390 µg/mL, the MIC [3, 8] was 415 µg/mL and the “Cb = Component B (OIT)” value [4, 14] was 63. The “Cb = Component B (OIT)” value [4, 15] was 78, the MIC [4, 9] was 63 µg/mL and the MIC [4, 10] was 78 µg/mL. The “Cb = Component B (OIT)” value ([5]; C. albicans ATCC # 10231, contact time 24 hour) was 1.3, the “Cb = Component B (OIT)” value ([5]; C. albicans ATCC # 10231, contact time 48 hour) was 1.3 and the “MIC … (end point)” value ([5]; contact time 24 hour) was 0.9 ppm. The MIC [5, 16] was 0.6 µg/mL, the MIC ([5]; ATCC10231, 48 h, contact time 48 hour) was 0.9 µg/mL and the MIC [6, 17] was 3.3 µg/mL. For the same molecule, the MIC [6, 18] was 3.3 µg/mL.

For CCCCNC(=O)OCC#CI [IPBC, 3-iodo-2-propynyl-butylcarbamate], the “MIC … (end point)” value [3, 13] was 263 ppm, the “MIC … (end point)” value ([3]; Ps. aeruginosa, contact time 48 hour) was 263 ppm and the “MIC … (end point)” value [4, 14] was 34 ppm. The “MIC … (end point)” value [4, 15] was 42 ppm, the “MIC … (end point)” value ([5]; contact time 24 hour) was 4.2 ppm and the “MIC … (end point)” value ([5]; contact time 48 hour) was 4.2 ppm. For the same molecule, the “MIC … (end point)” value ([6]; A. niger, contact time 3 days) was 0.4 ppm.

CCCC1COC(Cn2cncn2)(c2ccc(Cl)cc2Cl)O1 (stereo not shown) [propiconazole] was tested, and the “Ca = Component A (propiconazole), end-point concentration (MIC), alone or in mixture” value (shortened to “Ca = Component A (propiconazole)”) [3, 11] was 800, the “Ca = Component A (propiconazole)” value [3, 12] was 800 and the “Ca = Component A (propiconazole)” value [4, 19] was 100. The “Ca = Component A (propiconazole)” value ([4]; S. aureus, contact time 24 hour, Component B OIT) was 100, the “Ca = Component A (propiconazole)” value [4, 20] was 100 and the “Ca = Component A (propiconazole)” value ([4]; S. aureus, contact time 48 hour, Component B OIT) was 100. For the same molecule, the “Ca = Component A (propiconazole)” value [4, 21] was 100, the MIC [4, 9] was 100 µg/mL and the “Ca = Component A (propiconazole)” value [5, 22] was 50. The “Ca = Component A (propiconazole)” value ([5]; C. albicans ATCC # 10231, contact time 24 hour, Component B OIT) was 50, the “Ca = Component A (propiconazole)” value [5, 23] was 50 and the “Ca = Component A (propiconazole)” value ([5]; C. albicans ATCC # 10231, contact time 48 hour, Component B OIT) was 50. For the same molecule, the “Ca = Component A (propiconazole)” value [5, 24] was 50, the “Ca = Component A (propiconazole)” value ([6]; A. niger ATCC # 16404, contact time 3 days, Component B CMIT/MIT) was 20 and the “Ca = Component A (propiconazole)” value [6, 25] was 20. The “Ca = Component A (propiconazole)” value [6, 26] was 25, the MIC [6, 17] was 20 µg/mL and the MIC [6, 18] was 20 µg/mL.

In the case of Cn1sccc1=O [MI, 2-methyl-4-isothiazolin-3-one], the MIC ([3]; ATCC9027, 24 h) is reported as 20 µg/mL, the MIC ([3]; ATCC9027, 48 h) is reported as 20 µg/mL and the MIC ([4]; ATCC6538, 24 h) is reported as 30 µg/mL. For the same molecule, the MIC ([4]; ATCC6538, 48 h) was 40 µg/mL, the MIC ([6]; ATCC16404, 72 h) was 450 µg/mL and the MIC ([6]; ATCC16404, 168 h) was 450 µg/mL.

In the case of CC(C)(C)C(O)(CCc1ccc(Cl)cc1)Cn1cncn1 (stereo not shown) [tebuconazole], the “Ca = Component A (tebuconazole), end-point concentration (MIC), alone or in mixture” value (from here on “Ca = Component A (tebuconazole)”) ([3]; Ps. Aeruginosa ATCC # 9027, contact time 24 hour, Component B copper 8-hydroxyquinoline) is reported as 900, the MIC [3, 7] is reported as 900 µg/mL and the MIC [3, 8] is reported as 900 µg/mL. The “Ca = Component A (tebuconazole)” value [4, 19] was 50, the “Ca = Component A (tebuconazole)” value [4, 20] was 50 and the “Ca = Component A (tebuconazole)” value ([4]; S. aureus, contact time 48 hour, Component B CMIT/MIT) was 50. The “Ca = Component A (tebuconazole)” value [4, 21] was 50, the MIC [4, 9] was 50 µg/mL and the MIC [4, 10] was 50 µg/mL. For the same molecule, the “Ca = Component A (tebuconazole)” value [5, 22] was 50, the “Ca = Component A (tebuconazole)” value [5, 23] was 60 and the “Ca = Component A (tebuconazole)” value ([5]; C. albicans ATCC # 10231, contact time 48 hour, Component B CMIT/MIT) was 50. For the same molecule, the “Ca = Component A (tebuconazole)” value [5, 24] was 60, the MIC [5, 16] was 50 µg/mL and the “Ca = Component A (tebuconazole)” value [6, 25] was 8. The “Ca = Component A (tebuconazole)” value [6, 26] was 8, the MIC [6, 17] was 8 µg/mL and the MIC [6, 18] was 8 µg/mL.
